Results from patent publication US10336732B2, “1-heterocyclyl isochromanyl compounds and analogs for treating CNS disorders” (Sunovion Pharmaceuticals Inc., priority 2015, dated 2019).

Tested on: mice
Assay: Neuropharmacological assay (SmartCube), behavioral signature of compound-treated mice
Format: in vivo
Details: i.p. 15 min before behavioral test, most efficacious dose(s) of 3 doses
Source text: Neurosci. […] As reported in Roberds, because psychiatric diseases generally result from disorders of cell-cell communication or circuitry, intact systems are useful in detecting improvement in disease-relevant endpoints. These endpoints are typically behavioral in nature, often requiring human observation and interpretation. To facilitate testing of multiple compounds for behavioral effects relevant to psychiatric disease, PsychoGenics, Inc. (Tarrytown, N.Y., “PGI”) developed SmartCube™, an automated system in which behaviors of compound-treated mice are captured by digital video and analyzed with computer algorithms. […] PGI Analytical Systems uses data from SmartCube™ to compare the behavioral signature of a test compound to a database of behavioral signatures obtained using a large set of diverse reference compounds. (The composition of the database as well as validation of the method is further described in Roberds). In this way, the neuropharmacological effects of a test compound can be predicted by similarity to major classes of compounds, such as antipsychotics, anxiolytics and antidepressants.
The SmartCube™ system produces an activity signature indicating the probability that the activity of the test compound at the administered dose matches a given class of neuropharmacological agents. (See, e.g., Roberds, FIGS. 2 and 3). The test compound is simultaneously compared against multiple classes of agents; thus, a separate probability is generated for each behavioral effect measured (e.g., anxiolytic activity, analgesic activity, etc.). In Table 4, these probabilities are reported for each behavioral effect measured as follows:
Provided compounds were dissolved in a mixture of Pharmasolve™ (N-methyl-2-pyrrolidone), polyethylene glycol and propylene glycol, and were injected i.p. 15 min. before the behavioral test. For each compound, injections were administered at 3 different doses. For each behavioral effect measured, results for the most efficacious dose(s) are presented.

Row | SMILES | AD: ADHD (probability that behavioral signature matches class) | AG: analgesic (probability that behavioral signature matches class) | AX: anxiolytic (probability that behavioral signature matches class) | CE: cognitive enhancer (probability that behavioral signature matches class) | DP: anti-depressant (probability that behavioral signature matches class) | HA: hallucinogen (probability that behavioral signature matches class) | MS: mood stabilizer (probability that behavioral signature matches class) | PS: anti-psychotic (probability that behavioral signature matches class) | SD: sedative hypnotic (probability that behavioral signature matches class) | UN: uncharacterized CNS activity (probability that behavioral signature matches class) | XG: anxiogenic (probability that behavioral signature matches class)
1 | c1ccc2c(c1)CCO[C@@H]2[C@@H]1CCCN1 [Compound I-17, (S)-2-((S)-isochroman-1-yl)pyrrolidine] | + (LOQ ≤ + <5%) | + (LOQ ≤ + <5%) | ++ (5% ≤ ++ <25%) | ++ (5% ≤ ++ <25%) | +++ (25% ≤ +++ <50%) | + (LOQ ≤ + <5%) | + (LOQ ≤ + <5%) | ++ (5% ≤ ++ <25%) | + (LOQ ≤ + <5%) | + (LOQ ≤ + <5%) | + (LOQ ≤ + <5%)
2 | c1ccc2c(c1)CCO[C@H]2[C@@H]1CCCN1 [Compound I-18, (S)-2-((R)-isochroman-1-yl)pyrrolidine] | + (LOQ ≤ + <5%) | ++ (5% ≤ ++ <25%) | +++ (25% ≤ +++ <50%) | ++ (5% ≤ ++ <25%) | ++ (5% ≤ ++ <25%) | + (LOQ ≤ + <5%) | ++ (5% ≤ ++ <25%) | +++ (25% ≤ +++ <50%) | ++ (5% ≤ ++ <25%) | ++ (5% ≤ ++ <25%) | + (LOQ ≤ + <5%)
3 | c1ccc2c(c1)CCO[C@H]2[C@H]1CCCN1 [Compound I-19, (R)-2-((R)-isochroman-1-yl)pyrrolidine] | + (LOQ ≤ + <5%) | + (LOQ ≤ + <5%) | ++ (5% ≤ ++ <25%) | ++ (5% ≤ ++ <25%) | + (LOQ ≤ + <5%) | + (LOQ ≤ + <5%) | + (LOQ ≤ + <5%) | ++++ (50% ≤ ++++) | + (LOQ ≤ + <5%) | ++++ (50% ≤ ++++) | + (LOQ ≤ + <5%)
4 | c1ccc2c(c1)CCO[C@@H]2[C@H]1CCCN1 [Compound I-20, (R)-2-((S)-isochroman-1-yl)pyrrolidine] | + (LOQ ≤ + <5%) | ++ (5% ≤ ++ <25%) | ++ (5% ≤ ++ <25%) | ++ (5% ≤ ++ <25%) | ++ (5% ≤ ++ <25%) | + (LOQ ≤ + <5%) | ++ (5% ≤ ++ <25%) | ++++ (50% ≤ ++++) | ++ (5% ≤ ++ <25%) | +++ (25% ≤ +++ <50%) | + (LOQ ≤ + <5%)
5 | Cc1cccc2c1[C@@H]([C@@H]1CCCN1)OCC2 [Compound I-21, (S)-2-((S)-8-methylisochroman-1-yl)pyrrolidine] | + (LOQ ≤ + <5%) | ++ (5% ≤ ++ <25%) | ++ (5% ≤ ++ <25%) | + (LOQ ≤ + <5%) | ++ (5% ≤ ++ <25%) | + (LOQ ≤ + <5%) | + (LOQ ≤ + <5%) | ++ (5% ≤ ++ <25%) | + (LOQ ≤ + <5%) | +++ (25% ≤ +++ <50%) | + (LOQ ≤ + <5%)
6 | Cc1cccc2c1[C@H]([C@@H]1CCCN1)OCC2 [Compound I-22, (S)-2-((R)-8-methylisochroman-1-yl)pyrrolidine] | + (LOQ ≤ + <5%) | ++ (5% ≤ ++ <25%) | ++ (5% ≤ ++ <25%) | ++ (5% ≤ ++ <25%) | +++ (25% ≤ +++ <50%) | + (LOQ ≤ + <5%) | + (LOQ ≤ + <5%) | +++ (25% ≤ +++ <50%) | + (LOQ ≤ + <5%) | + (LOQ ≤ + <5%) | + (LOQ ≤ + <5%)
7 | Cc1cccc2c1[C@H]([C@H]1CCCN1)OCC2 [Compound I-23, (R)-2-((R)-8-methylisochroman-1-yl)pyrrolidine] | + (LOQ ≤ + <5%) | +++ (25% ≤ +++ <50%) | ++ (5% ≤ ++ <25%) | ++ (5% ≤ ++ <25%) | ++ (5% ≤ ++ <25%) | + (LOQ ≤ + <5%) | ++ (5% ≤ ++ <25%) | +++ (25% ≤ +++ <50%) | ++ (5% ≤ ++ <25%) | + (LOQ ≤ + <5%) | + (LOQ ≤ + <5%)
8 | Cc1cccc2c1[C@@H]([C@H]1CCCN1)OCC2 [Compound I-24, (R)-2-((S)-8-methylisochroman-1-yl)pyrrolidine] | + (LOQ ≤ + <5%) | ++ (5% ≤ ++ <25%) | ++ (5% ≤ ++ <25%) | ++ (5% ≤ ++ <25%) | +++ (25% ≤ +++ <50%) | + (LOQ ≤ + <5%) | ++ (5% ≤ ++ <25%) | ++ (5% ≤ ++ <25%) | ++ (5% ≤ ++ <25%) | + (LOQ ≤ + <5%) | + (LOQ ≤ + <5%)
9 | Cc1ccc2c(c1)[C@H]([C@@H]1CCCN1)OCC2 [Compound I-25, (S)-2-((R)-7-methylisochroman-1-yl)pyrrolidine] | + (LOQ ≤ + <5%) | +++ (25% ≤ +++ <50%) | ++ (5% ≤ ++ <25%) | ++ (5% ≤ ++ <25%) | ++ (5% ≤ ++ <25%) | + (LOQ ≤ + <5%) | + (LOQ ≤ + <5%) | ++ (5% ≤ ++ <25%) | + (LOQ ≤ + <5%) | ++ (5% ≤ ++ <25%) | + (LOQ ≤ + <5%)
